Positions of bridges follow the written chain, without caps; N, C: chain ends. Non-standard residues stand in square brackets, D forms with d. Residues, ends and D or L forms follow the SMILES beside them.
Columns and labels:
∂-opioid receptors = molecular target: T1, ∂-opioid receptors (Homo sapiens, UniProt P41143); assay: Opioid receptor membrane binding (3H-Diprenorphine)
T1 construct: purchased RBI/Sigma 0-116
Description: For opioid receptor binding, membranes (0-116, RBI/Sigma) are diluted into binding buffer (75 mM Tris pH 7.4, 12.5 mM MgCl2 and 2 mM EDTA). For example, 10 μl of membranes are diluted in 500 μl of binding buffer (i.e., 1:50 dilution), which is aliquoted into labelled tubes. Cold competitor or test competitor is added (e.g. 5 μl of 100× stock solution; 5 μl of 100 μM naltrindole solution (N-115, RBI/Sigma in DMSO). Radioligand is then added (^3H-Diprenorphine, TRK 1060, Amersham, 250 μCi in 250 μl, 10.5 μM at 95 Ci/mmol). For competition studies, 0.5 nM is used. A 100× stock (i.e., […]) is made by diluting the commercial stock 1:210 in binding buffer, and 5 μl is added to every tube. Control tubes have radioligand but no membranes. The mixtures are vortexed, then spun very briefly. The mixtures are then incubated for 1 hour at 27° C. in a water bath. The mixture is filtered through GF/C filters over a vacuum. Each filter is pre-soaked in polyethyleneimine (0.3% in water; add 1 ml of 10% stock (P-261; RBI/Sigma) to 33 ml of MilliQ water). The tubes are washed with 2-3 ml of wash buffer (50 mM Tris pH 7.4) and the wash filtered. The filters are then rinsed with 3×5 ml of wash buffer, air dried, placed in a scintillation vial and 4.5 ml of scintillant added. The activity on the filter is then determined.

[1] = test system: antigen specific antibody recall response; assay: Cynomolgus monkeys immunized with scFv antigen; type: in vivo; conditions: single dose 50 mg/kg i.v.
Description: Cynomolgus monkeys were immunized with antigen that is a single chain Fv (scFv) protein. Each animal previously received 3 i.v. injections of the antigen and all developed high serum titers. Five animals were randomly divided into 2 groups. Two animals served as PBS treated controls and 3 were treated i.v. with 50 mg/kg CRD-Leu4Ile11Cys13 peptide 3(3-12)[MCP-1]. Thirty minutes following CRD-Leu4Ile11Cys13 peptide 3(3-12)[MCP-1] treatment all animals were challenged i.v. with 3.5 mg/kg antigen. In addition, animals were challenged intradermal with each of the following in a volume of 50 μl:PBS; 50 μg antigen; 5 μg antigen; 0.5 μg antigen; 500 ng MCP-1; or 50 ng LPS. Serum was collected at 10 minutes, 30 minutes, 60 minutes, 4 hours, and 24 hours. Animals were sacrificed 24 hours after CRD-Leu4Ile11Cys13 peptide 3(3-12)[MCP-1] injection and complete necropsy performed and tissues fixed for histopathology. Fixed and frozen skin samples were harvested for histopathology and immunohistochemistry. […] Blood was also analyzed pre- and post-CRD-Leu4Ile11Cys13 peptide 3(3-12)[MCP-1] injection for hematology parameters and serum chemistry. Serum levels were evaluated by an LC-MS method (limit of quantitation=1 μg/ml) pre-treatment and then at 10 minutes, 30 minutes, 60 minutes, 4 hours and 20-24 hours after injection. […]

B cells = type: cell-based
[2] = Acute and 7-day repeat dose rat toxicity; type: in vivo; conditions: 1 or 10 mg (5-50 mg/kg) i.v.
Text: That is, all animals remained clinically normal throughout.

[3] = molecular target: recombinant human chemokine receptors (CCR1-5, CXCR4, CXCR1, CXCR2); assay: Binding of biotin-labeled peptides to chemokine receptor expressing HOS/CHO lines; conditions: no evidence for any binding; read-out: affinity of any binding to recombinant human chemokine receptors
Description: Iodinated-RANTES and iodinated-MCP-1 (Amersham) were reconstituted in MilliQ water to a concentration of 50 nM (0.1 μCi/μl) with a specific activity of 2000 Ci/mmole. Iodinated-streptavidin was obtained (Amersham) at a stock concentration of 47 nM (0.1 μCi/μl) and a specific activity of 38 μCi/μg (55,000 Da). Cold RANTES and MCP-1 were purchased from R&D Systems (Minneapolis, Minn.), reconstituted in sterile PBS+1 mg/ml fatty acid free BSA (FAF-BSA) (Sigma A-6003) at 10 μg/ml ([…]). Cold streptavidin (Calbiochem) was reconstituted in sterile MilliQ to a concentration of 4 mg/ml (90 μM).
FAF-BSA was used throughout. All experiments were performed in binding medium (50 mM HEPES, 1 mM CaCl2, 1 mM MgCl2, 0.5% FAF-BSA pH 7.5) as described by Ruffing et al. (Cell. Immunol., 189, 160 (1998)) unless stated otherwise. Reactions were all performed at 4° C. and all buffers were pre-cooled to 4° C. unless stated otherwise.
The biotinylated peptide was synthesized as an N-terminal biotin conjugate of the sequence n′-[…]-c′ (SEQ ID NO:152; Affiniti Research) and confirmed as >90% pure by HPLC. […]
The binding of labeled peptide 2 and labeled peptide 3 to the parental HOS, parental CHO and 8 chemokine receptor expressing lines was compared. […] The amount of streptavidin molecules added was calculated in each case to be approximately 50-fold in excess over the number of chemokine receptor sites. […]

T1 sequence (P41143 whole entry): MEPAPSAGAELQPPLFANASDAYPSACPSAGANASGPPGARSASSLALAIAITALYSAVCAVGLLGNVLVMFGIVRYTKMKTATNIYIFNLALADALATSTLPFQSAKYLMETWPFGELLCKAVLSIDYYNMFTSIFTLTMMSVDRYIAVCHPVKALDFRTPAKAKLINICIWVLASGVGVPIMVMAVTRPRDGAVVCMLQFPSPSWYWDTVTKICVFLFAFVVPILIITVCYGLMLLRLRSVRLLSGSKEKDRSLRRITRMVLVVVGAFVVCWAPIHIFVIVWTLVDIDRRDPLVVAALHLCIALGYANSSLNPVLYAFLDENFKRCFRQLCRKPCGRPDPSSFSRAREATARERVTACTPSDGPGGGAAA

| Molecule | EC50 (∂-opioid receptors) | antigen specific antibody response in splenocyte, lymph node and PBL recall responses [1] | effect on proliferation of B cells to tetanus toxoid (B cells) | acute rat toxicity, clinical findings [2] | Kd [3] |
| --- | --- | --- | --- | --- | --- |
| CC[C@@H](C)[C@H]1NC(=O)[C@@H](CCC(N)=O)NC(=O)[C@H](N)CSSC[C@H](C(N)=O)NC(=O)[C@@H](CC(C)C)NC(=O)[C@@H](CC(=O)O)NC(=O)[C@H]2CCCN2C(=O)[C@@H](CCCCN)NC(=O)[C@@H](CCC(N)=O)NC(=O)[C@@H](CCCCN)NC(=O)[C@@H](Cc2c[nH]c3ccccc23)NC1=O (H-[dC][dQ][dI][dW][dK][dQ][dK][dP][dD][dL][dC]-NH2; disulfide 1-11; N-terminus assumed) | > 100 µM | reduced antigen specific antibody response | no effect | no clinically detectable changes | – |
| EICADPKQKWVQ [peptide 3(1-12)[MCP-1]] | – | – | – | – | > 10 µM |
